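Assay format: 96-well plates, 48-hour exposure. GI50 = concentration required for 50% inhibition of growth.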 Active and inactive are the calls of the source. Cut-off read from the data, not from the text of the source: active = GI50 up to about 1.1 µM and inactive = higher.
Legend:
Test in all cases: NCI tumour cell line growth inhibition, 48 h
SR = tested on: SR
NCI/ADR-RES = tested on: NCI/ADR-RES
SN12C = tested on: SN12C
PC-3 = tested on: PC-3
U-251 = tested on: U-251
SF-268 = tested on: SF-268
SF-539 = tested on: SF-539
Hs-578T = tested on: Hs-578T
HL-60 = tested on: HL-60
KM12 = tested on: KM12
HCT-116 = tested on: HCT-116
MOLT-4 = tested on: MOLT-4
OVCAR-8 = tested on: OVCAR-8
DU-145 = tested on: DU-145
SK-MEL-5 = tested on: SK-MEL-5
TK-10 = tested on: TK-10
M14 = tested on: M14
SK-MEL-28 = tested on: SK-MEL-28
T47D = tested on: T47D
SK-OV-3 = tested on: SK-OV-3
HOP-62 = tested on: HOP-62
EKVX = tested on: EKVX
HOP-92 = tested on: HOP-92
OVCAR-5 = tested on: OVCAR-5
A498 = tested on: A498
HCT-15 = tested on: HCT-15
SW-620 = tested on: SW-620
NCI-H23 = tested on: NCI-H23
SF-295 = tested on: SF-295
MDA-MB-435 = tested on: MDA-MB-435
COLO 205 = tested on: COLO 205
NCI-H460 = tested on: NCI-H460
CCRF-CEM = tested on: CCRF-CEM
BT-549 = tested on: BT-549
OVCAR-3 = tested on: OVCAR-3
UACC-257 = tested on: UACC-257
SNB-19 = tested on: SNB-19
CAKI-1 = tested on: CAKI-1
HT-29 = tested on: HT-29
786-0 = tested on: 786-0
NCI-H522 = tested on: NCI-H522
UACC-62 = tested on: UACC-62
SNB-75 = tested on: SNB-75
UO-31 = tested on: UO-31
LOX IMVI = tested on: LOX IMVI
K562 = tested on: K562
SK-MEL-2 = tested on: SK-MEL-2
ACHN = tested on: ACHN
MCF7 = tested on: MCF7
RXF 393 = tested on: RXF 393
Malme-3M = tested on: Malme-3M
IGROV-1 = tested on: IGROV-1
MDA-N = tested on: MDA-N
MDA-MB-231 = tested on: MDA-MB-231
NCI-H226 = tested on: NCI-H226
A549 = tested on: A549
OVCAR-4 = tested on: OVCAR-4
HCC 2998 = tested on: HCC 2998
RPMI-8226 = tested on: RPMI-8226

NC1C2C(CC(=O)O)OCC=C3CN4CCC1(C(=O)C(=O)O)C4CC32 (stereo unspecified)
GI50 (SR): > 100 µM (inactive)
GI50 (NCI/ADR-RES): > 100 µM (inactive)
GI50 (SN12C): > 100 µM (inactive)
GI50 (PC-3): > 100 µM (inactive)
GI50 (U-251): > 100 µM (inactive)
GI50 (SF-268): > 100 µM (inactive)
GI50 (SF-539): > 100 µM (inactive)
GI50 (Hs-578T): > 100 µM (inactive)
GI50 (HL-60): > 100 µM (inactive)
GI50 (KM12): > 100 µM (inactive)
GI50 (HCT-116): > 100 µM (inactive)
GI50 (MOLT-4): > 100 µM (inactive)
GI50 (OVCAR-8): > 100 µM (inactive)
GI50 (DU-145): > 100 µM (inactive)
GI50 (SK-MEL-5): > 100 µM (inactive)
GI50 (TK-10): > 100 µM (inactive)
GI50 (M14): > 100 µM (inactive)
GI50 (SK-MEL-28): > 100 µM (inactive)
GI50 (T47D): > 100 µM (inactive)
GI50 (SK-OV-3): > 100 µM (inactive)
GI50 (HOP-62): > 100 µM (inactive)
GI50 (EKVX): > 100 µM (inactive)
GI50 (HOP-92): > 100 µM (inactive)
GI50 (OVCAR-5): > 100 µM (inactive)
GI50 (A498): > 100 µM (inactive)
GI50 (HCT-15): > 100 µM
GI50 (SW-620): > 100 µM (inactive)
GI50 (NCI-H23): > 100 µM (inactive)
GI50 (SF-295): > 100 µM (inactive)
GI50 (MDA-MB-435): > 100 µM (inactive)
GI50 (COLO 205): > 100 µM (inactive)
GI50 (NCI-H460): > 100 µM (inactive)
GI50 (CCRF-CEM): > 100 µM (inactive)
GI50 (BT-549): > 100 µM (inactive)
GI50 (OVCAR-3): > 100 µM (inactive)
GI50 (UACC-257): > 100 µM (inactive)
GI50 (SNB-19): > 100 µM (inactive)
GI50 (CAKI-1): > 100 µM (inactive)
GI50 (HT-29): > 100 µM (inactive)
GI50 (786-0): > 100 µM (inactive)
GI50 (NCI-H522): > 100 µM (inactive)
GI50 (UACC-62): > 100 µM (inactive)
GI50 (SNB-75): > 100 µM (inactive)
GI50 (UO-31): > 100 µM (inactive)
GI50 (LOX IMVI): > 100 µM (inactive)
GI50 (K562): > 100 µM (inactive)
GI50 (SK-MEL-2): > 100 µM (inactive)
GI50 (ACHN): > 100 µM (inactive)
GI50 (MCF7): > 100 µM (inactive)
GI50 (RXF 393): > 100 µM (inactive)
GI50 (Malme-3M): > 100 µM (inactive)
GI50 (IGROV-1): > 100 µM (inactive)
GI50 (MDA-N): > 100 µM (inactive)
GI50 (MDA-MB-231): > 100 µM (inactive)
GI50 (NCI-H226): > 100 µM (inactive)
GI50 (A549): > 100 µM (inactive)
GI50 (OVCAR-4): > 100 µM (inactive)

Nn1c(=O)[nH]c2ncn(Cc3ccccc3)c2c1=O
GI50 (SR): > 100 µM (inactive)
GI50 (NCI/ADR-RES): > 100 µM (inactive)
GI50 (SN12C): > 100 µM (inactive)
GI50 (PC-3): > 100 µM (inactive)
GI50 (U-251): > 100 µM (inactive)
GI50 (SF-268): > 100 µM (inactive)
GI50 (SF-539): > 100 µM (inactive)
GI50 (Hs-578T): > 100 µM (inactive)
GI50 (HL-60): > 100 µM (inactive)
GI50 (KM12): > 100 µM (inactive)
GI50 (HCT-116): > 100 µM (inactive)
GI50 (MOLT-4): > 100 µM (inactive)
GI50 (OVCAR-8): > 100 µM (inactive)
GI50 (DU-145): > 100 µM (inactive)
GI50 (SK-MEL-5): > 100 µM (inactive)
GI50 (TK-10): > 100 µM (inactive)
GI50 (M14): > 100 µM (inactive)
GI50 (SK-MEL-28): > 100 µM (inactive)
GI50 (T47D): > 100 µM (inactive)
GI50 (SK-OV-3): > 100 µM (inactive)
GI50 (HOP-62): > 100 µM (inactive)
GI50 (EKVX): > 100 µM (inactive)
GI50 (HOP-92): > 100 µM (inactive)
GI50 (OVCAR-5): > 100 µM (inactive)
GI50 (A498): > 100 µM (inactive)
GI50 (HCT-15): > 100 µM
GI50 (SW-620): > 100 µM (inactive)
GI50 (NCI-H23): > 100 µM (inactive)
GI50 (SF-295): > 100 µM (inactive)
GI50 (MDA-MB-435): > 100 µM (inactive)
GI50 (COLO 205): > 100 µM (inactive)
GI50 (NCI-H460): > 100 µM (inactive)
GI50 (CCRF-CEM): > 100 µM (inactive)
GI50 (BT-549): > 100 µM (inactive)
GI50 (OVCAR-3): > 100 µM (inactive)
GI50 (HCC 2998): > 100 µM (inactive)
GI50 (UACC-257): > 100 µM (inactive)
GI50 (SNB-19): > 100 µM (inactive)
GI50 (CAKI-1): > 100 µM (inactive)
GI50 (HT-29): > 100 µM (inactive)
GI50 (786-0): > 100 µM (inactive)
GI50 (NCI-H522): > 100 µM (inactive)
GI50 (UACC-62): > 100 µM (inactive)
GI50 (SNB-75): > 100 µM (inactive)
GI50 (UO-31): > 100 µM (inactive)
GI50 (K562): > 100 µM (inactive)
GI50 (SK-MEL-2): > 100 µM (inactive)
GI50 (ACHN): > 100 µM (inactive)
GI50 (MCF7): > 100 µM (inactive)
GI50 (RXF 393): > 100 µM (inactive)
GI50 (Malme-3M): > 100 µM (inactive)
GI50 (IGROV-1): > 100 µM (inactive)
GI50 (MDA-N): > 100 µM (inactive)
GI50 (MDA-MB-231): > 100 µM (inactive)
GI50 (NCI-H226): > 100 µM (inactive)
GI50 (A549): > 100 µM (inactive)
GI50 (OVCAR-4): > 100 µM (inactive)

CCOC(=O)c1ccc2nc3n(c2c1)C(c1c(F)cccc1F)SC3 (stereo unspecified)
GI50 (SR): 49.3 µM (inactive)
GI50 (NCI/ADR-RES): > 100 µM (inactive)
GI50 (SN12C): > 100 µM (inactive)
GI50 (PC-3): 72.1 µM (inactive)
GI50 (U-251): > 100 µM (inactive)
GI50 (SF-268): > 100 µM (inactive)
GI50 (SF-539): > 100 µM (inactive)
GI50 (Hs-578T): > 100 µM (inactive)
GI50 (HL-60): > 100 µM (inactive)
GI50 (KM12): 81.8 µM (inactive)
GI50 (HCT-116): 50.4 µM (inactive)
GI50 (RPMI-8226): > 100 µM (inactive)
GI50 (MOLT-4): > 100 µM (inactive)
GI50 (OVCAR-8): > 100 µM (inactive)
GI50 (DU-145): > 100 µM (inactive)
GI50 (SK-MEL-5): > 100 µM (inactive)
GI50 (TK-10): > 100 µM (inactive)
GI50 (M14): > 100 µM (inactive)
GI50 (SK-MEL-28): > 100 µM (inactive)
GI50 (T47D): > 100 µM (inactive)
GI50 (SK-OV-3): > 100 µM (inactive)
GI50 (HOP-62): 57.3 µM (inactive)
GI50 (EKVX): 29.9 µM (inactive)
GI50 (HOP-92): > 100 µM (inactive)
GI50 (OVCAR-5): > 100 µM (inactive)
GI50 (A498): > 100 µM (inactive)
GI50 (HCT-15): > 100 µM
GI50 (SW-620): > 100 µM (inactive)
GI50 (NCI-H23): 78.9 µM (inactive)
GI50 (SF-295): > 100 µM (inactive)
GI50 (MDA-MB-435): > 100 µM (inactive)
GI50 (COLO 205): > 100 µM (inactive)
GI50 (NCI-H460): > 100 µM (inactive)
GI50 (CCRF-CEM): > 100 µM (inactive)
GI50 (BT-549): > 100 µM (inactive)
GI50 (OVCAR-3): 67.1 µM (inactive)
GI50 (HCC 2998): > 100 µM (inactive)
GI50 (UACC-257): > 100 µM (inactive)
GI50 (SNB-19): 95.3 µM (inactive)
GI50 (CAKI-1): > 100 µM (inactive)
GI50 (HT-29): > 100 µM (inactive)
GI50 (786-0): 55.7 µM (inactive)
GI50 (UACC-62): > 100 µM (inactive)
GI50 (SNB-75): > 100 µM (inactive)
GI50 (UO-31): > 100 µM (inactive)
GI50 (LOX IMVI): > 100 µM (inactive)
GI50 (K562): > 100 µM (inactive)
GI50 (SK-MEL-2): > 100 µM (inactive)
GI50 (ACHN): 84.1 µM (inactive)
GI50 (MCF7): 56.8 µM (inactive)
GI50 (RXF 393): 24.9 µM (inactive)
GI50 (IGROV-1): 86.7 µM (inactive)
GI50 (MDA-N): > 100 µM (inactive)
GI50 (MDA-MB-231): > 100 µM (inactive)
GI50 (NCI-H226): 15.1 µM (inactive)
GI50 (A549): 79.1 µM (inactive)
GI50 (OVCAR-4): > 100 µM (inactive)
